Our source for the Ki values is patent US10065970B2 (Genentech, Inc., priority 2015, dated 2018).

The term Ki denotes the equilibrium dissociation constant of an inhibitor or competing ligand from its target.

Structures are written as SMILES. Like-named read-outs stand apart in the source and are kept apart here.

The target in this assay is PI3Kα (alpha) (Homo sapiens (Human), UniProt P42336). The assay is described as follows: p110α (alpha) PI3K Binding Assay (ADP-Glo lipid kinase reaction). In kind it is biochemical. As to conditions: read-out: PI3Kα-(alpha) ATP (Ki) micromolar. A digest of the protocol:
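Enzyme with PIP2:3PS lipid substrate and ATP/MgCl2 in 50 mM HEPES, 50 mM NaCl, 3 mM MgCl2, 0.01% BSA, 1% DMSO, 120 min at room temperature. ADP formed detected by ADP-Glo luminescence. Ki from 10-point dose-response curves via the Morrison equation.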
Background: ADP-Glo first removes unused ATP, then detects ADP through luciferase.

Where [1] appears, read: PI3K alpha 0.2 nM, ATP 40 μM, PIP2:3PS 50 μM, 120 min, room temperature, Ki by Morrison Equation.

PI3Kα (alpha), sequence (P42336 whole entry): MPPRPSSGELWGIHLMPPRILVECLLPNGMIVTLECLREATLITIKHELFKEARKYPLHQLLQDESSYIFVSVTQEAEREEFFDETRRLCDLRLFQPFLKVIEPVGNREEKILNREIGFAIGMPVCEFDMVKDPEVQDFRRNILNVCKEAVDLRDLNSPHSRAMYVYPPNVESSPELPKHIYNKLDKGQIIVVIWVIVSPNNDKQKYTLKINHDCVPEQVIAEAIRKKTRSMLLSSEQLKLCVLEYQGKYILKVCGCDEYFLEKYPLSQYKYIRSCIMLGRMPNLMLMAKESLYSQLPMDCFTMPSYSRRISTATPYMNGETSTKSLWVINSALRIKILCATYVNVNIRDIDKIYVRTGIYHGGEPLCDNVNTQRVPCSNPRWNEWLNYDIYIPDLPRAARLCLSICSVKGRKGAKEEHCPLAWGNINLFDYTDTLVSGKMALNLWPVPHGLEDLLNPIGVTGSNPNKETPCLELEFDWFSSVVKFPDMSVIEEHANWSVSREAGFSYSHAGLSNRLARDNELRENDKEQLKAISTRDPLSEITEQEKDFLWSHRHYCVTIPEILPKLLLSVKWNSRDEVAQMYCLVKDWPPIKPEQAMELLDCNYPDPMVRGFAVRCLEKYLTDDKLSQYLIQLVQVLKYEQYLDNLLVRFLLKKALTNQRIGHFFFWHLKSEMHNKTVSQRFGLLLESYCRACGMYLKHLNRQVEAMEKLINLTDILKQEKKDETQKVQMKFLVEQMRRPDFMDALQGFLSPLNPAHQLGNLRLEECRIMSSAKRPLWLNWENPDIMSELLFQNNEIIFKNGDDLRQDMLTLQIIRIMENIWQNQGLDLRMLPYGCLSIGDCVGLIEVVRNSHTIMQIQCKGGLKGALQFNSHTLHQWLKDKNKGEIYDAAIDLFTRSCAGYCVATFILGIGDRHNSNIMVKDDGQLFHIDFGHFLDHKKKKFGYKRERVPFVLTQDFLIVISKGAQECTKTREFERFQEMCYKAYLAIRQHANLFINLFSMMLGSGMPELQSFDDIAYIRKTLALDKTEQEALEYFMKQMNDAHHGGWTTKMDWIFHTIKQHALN
PI3Kα (alpha), sequence (P27986 whole entry partner): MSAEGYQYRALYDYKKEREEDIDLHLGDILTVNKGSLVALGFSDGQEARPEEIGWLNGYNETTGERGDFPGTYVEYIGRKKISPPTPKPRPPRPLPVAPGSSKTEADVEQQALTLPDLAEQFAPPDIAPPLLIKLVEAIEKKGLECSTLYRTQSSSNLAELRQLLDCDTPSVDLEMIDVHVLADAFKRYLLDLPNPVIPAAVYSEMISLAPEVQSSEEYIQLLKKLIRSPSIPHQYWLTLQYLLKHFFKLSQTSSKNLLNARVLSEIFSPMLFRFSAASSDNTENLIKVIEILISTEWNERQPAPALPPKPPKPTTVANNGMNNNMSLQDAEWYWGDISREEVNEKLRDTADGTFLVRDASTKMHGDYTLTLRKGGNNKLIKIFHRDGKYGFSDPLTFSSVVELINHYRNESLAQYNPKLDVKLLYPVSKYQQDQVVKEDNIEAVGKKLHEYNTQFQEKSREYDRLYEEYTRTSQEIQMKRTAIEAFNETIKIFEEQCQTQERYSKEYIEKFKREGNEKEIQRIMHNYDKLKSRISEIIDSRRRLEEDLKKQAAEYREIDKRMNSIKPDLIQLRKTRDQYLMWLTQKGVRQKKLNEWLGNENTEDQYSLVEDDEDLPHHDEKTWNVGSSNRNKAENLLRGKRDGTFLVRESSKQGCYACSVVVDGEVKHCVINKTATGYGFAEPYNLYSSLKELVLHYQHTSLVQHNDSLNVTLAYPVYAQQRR

Take `CC[C@@H](C(N)=O)n1cc(-c2cc3c4c(c2)nc(-c2ccc5oc(N)nc5n2)n4CCCO3)cn1` (single isomer, unassigned) [Example 311]: the Ki was 0.031 nM. In the case of `NC(=O)[C@@H](Nc1cc2c3c(c1)nc(-c1ccc(F)cc1F)n3CCCO2)C1CC1` [Example 145, (S)-2-Cyclopropyl-2-((1-(2,4-difluorophenyl)-8,9-dihydro-7H-6-oxa-2,9a-diazabenzo[cd]azulen-4-yl)amino)acetamide], the Ki under setting [1] is 382 nM. Consider `C[C@@H](C(N)=O)N(C)c1cc2c3c(c1)nc(-c1ccc4oc(N)nc4c1)n3CCCCO2` [Example 254, (S)-2-((1-(2-Aminobenzo[d]oxazol-5-yl)-7,8,9,10-tetrahydro-6-oxa-2,10a-diazacycloocta[cd]inden-4-yl)(methyl)amino)propanamide], for which the Ki under setting [1] is less than 0.02 nM. As to `C[C@H](Oc1cc2c3c(c1)nc(-c1ccc4nc(N)sc4n1)n3CCCCO2)C(N)=O` [Example 265, (S)-2-((1-(2-Aminothiazolo[5,4-b]pyridin-5-yl)-7,8,9,10-tetrahydro-6-oxa-2,10a-diazacycloocta[cd]inden-4-yl)oxy)propanamide], under setting [1], the Ki is less than 0.02 nM.

With `CNc1nc2cc(-c3nc4cc(N[C@@H](C)C(N)=O)cc5c4n3CCCO5)ccc2o1` [Example 185, (S)-2-((1-(2-(Methylamino)benzo[d]oxazol-5-yl)-8,9-dihydro-7H-6-oxa-2,9a-diazabenzo[cd]azulen-4-yl)amino)propanamide], the Ki under setting [1] came out at 2.01 nM. Turning to `NC(=O)[C@@H](Nc1cc2c3c(c1)nc(-c1ccc4nc(Cl)nn4c1)n3CCCO2)C1CC1` [Example 197, (S)-2-((1-(2-Chloro-[1,2,4]triazolo[1,5-a]pyridin-6-yl)-8,9-dihydro-7H-6-oxa-2,9a-diazabenzo[cd]azulen-4-yl)amino)-2-cyclopropylacetamide], under setting [1], the Ki was 27.2 nM. Take `NC(=O)[C@@H]1CCCN1c1cc2c3c(c1)nc(-c1ccnc4[nH]nnc14)n3CCCO2` [Example 206, (S)-1-(1-(3H-[1,2,3]Triazolo[4,5-b]pyridin-7-yl)-8,9-dihydro-7H-6-oxa-2,9a-diazabenzo[cd]azulen-4-yl)pyrrolidine-2-carb oxamide]: the inhibition constant (Ki) under setting [1] was 25.9 nM.

With `CC[C@H](Oc1cc2c3c(c1)nc(-c1cc(F)c4oc(N)nc4c1)n3CCCCO2)C(N)=O` [Example 272, (S)-2-((1-(2-Amino-7-fluorobenzo[d]oxazol-5-yl)-7,8,9,10-tetrahydro-6-oxa-2,10a-diazacycloocta[cd]inden-4-yl)oxy)butanamide], the inhibition constant (Ki) under setting [1] is less than 0.02 nM. Consider `Nc1nc2cc(-c3nc4cc(N[C@H]5C[C@H](F)C5)cc5c4n3CCCO5)ccc2o1` (single isomer, unassigned) [Example 202, 1-(2-Aminobenzo[d]oxazol-5-yl)-N-((1r,3r)-3-fluorocyclobutyl)-8,9-dihydro-7H-6-oxa-2,9a-diazabenzo[cd]azulen-4-amine], for which the inhibitory constant (Ki) under setting [1] amounted to 0.563 nM. As to `NC(=O)[C@@H](Nc1cc2c3c(c1)nc(-c1ccc4ncncc4c1)n3CCCO2)C1CC1` [Example 119, (S)-2-Cyclopropyl-2-((1-(quinazolin-6-yl)-8,9-dihydro-7H-6-oxa-2,9a-diazabenzo[cd]azulen-4-yl)amino)acetamide], the inhibitory constant (Ki) under setting [1] was determined as 215 nM. For the compound `C[C@H](Oc1cc2c3c(c1)nc(-c1ccc(-c4nc[nH]n4)c(F)c1)n3CCCCO2)C(N)=O` [Example 269, (S)-2-((1-(3-Fluoro-4-(1H-1,2,4-triazol-3-yl)phenyl)-7,8,9,10-tetrahydro-6-oxa-2,10a-diazacycloocta[cd]inden-4-yl)oxy)propanamide], under setting [1], the Ki is less than 0.02 nM. In the case of `COC[C@@](C)(C(N)=O)n1cc(-c2cc3c4c(c2)nc(-c2ccc5oc(N)nc5c2)n4CCCO3)cn1` (single isomer, unassigned) [Example 233], the Ki under setting [1] worked out at 0.119 nM. The same measure, in the same setting: in the case of `NC(=O)[C@@H](Nc1cc2c3c(c1)nc(-c1ccc4ncsc4c1)n3CCCO2)C1CC1` [Example 178, (S)-2-((1-(Benzo[d]thiazol-6-yl)-8,9-dihydro-7H-6-oxa-2,9a-diazabenzo[cd]azulen-4-yl)amino)-2-cyclopropylacetamide] it was 32.2 nM; in that of `CC[C@H](C(N)=O)n1cc(-c2cc3c4c(c2)nc(-c2ccc5oc(N)nc5c2)n4CCCO3)cn1` [Example 216, (R)-2-(4-(1-(2-Aminobenzo[d]oxazol-5-yl)-8,9-dihydro-7H-6-oxa-2,9a-diazabenzo[cd]azulen-4-yl)-1H-pyrazol-1-yl)butanamide], 0.214 nM. As for `NC(=O)[C@@H]1CCCN1c1cc2c3c(c1)nc(-c1ccc4[nH]cnc4c1)n3CCCO2` [Example 199, (S)-1-(1-(1H-Benzo[d]imidazol-5-yl)-8,9-dihydro-7H-6-oxa-2,9a-diazabenzo[cd]azulen-4-yl)pyrrolidine-2-carboxamide], the Ki under setting [1] turned out to be 33.2 nM. For the compound `CC[C@H](C(N)=O)n1cc(-c2cc3c4c(c2)nc(-c2ccc5oc(N)nc5n2)n4CCCO3)cn1` (single isomer, unassigned) [Example 312], the Ki was 0.039 nM. With `Cn1cc(-c2cc3c4c(c2)nc(-c2ccc5oc(N)nc5c2)n4CCCO3)cn1` [Example 153, 5-(4-(1-Methyl-1H-pyrazol-4-yl)-8,9-dihydro-7H-6-oxa-2,9a-diazabenzo[cd]azulen-1-yl)benzo[d]oxazol-2-amine], the Ki under setting [1] turned out to be 0.74 nM. Still for that read-out and setting: for `Cn1cc(-c2nc3cc(N[C@H](C(N)=O)C4CC4)cc4c3n2CCCO4)ccc1=O` [Example 147, (S)-2-Cyclopropyl-2-((1-(1-methyl-6-oxo-1,6-dihydropyridin-3-yl)-8,9-dihydro-7H-6-oxa-2,9a-diazabenzo[cd]azulen-4-yl)amino)acetamide] the value was 139 nM; for `Nc1nc2cc(-c3nc4cc(Br)cc5c4n3CCCO5)ccc2o1` [Example 101, 5-(4-Bromo-8,9-dihydro-7H-6-oxa-2,9a-diazabenzo[cd]azulen-1-yl)benzo [d]oxazol 2-amine], 7.75 nM; for `C[C@H](Oc1cc2c3c(c1)nc(-c1cc(F)c4nc(N)sc4c1)n3CCCCO2)C(N)=O` [Example 242, (S)-2-((1-(2-Amino-4-fluorobenzo[d]thiazol-6-yl)-7,8,9,10-tetrahydro-6-oxa-2,10a-diazacycloocta[cd]inden-4-yl)oxy)propanamide], less than 0.02 nM. With `N#CC1CCCN(c2nc3cc(NC(C(N)=O)C4CC4)cc4c3n2CCCO4)C1` [Example 174, (S)-2-[1-(3-Cyanopiperidin-1-yl)-8,9-dihydro-7H-6-oxa-2,9a-diazabenzo[cd]azulen-4-ylamino]-2-cyclopropylacetamide], under setting [1], the Ki was 262 nM.

Turning to `COc1ccc(-c2nc3cc(N[C@@H](C)C(N)=O)cc4c3n2CCCO4)cn1` [Example 111, (S)-2-((1-(6-Methoxypyridin-3-yl)-8,9-dihydro-7H-6-oxa-2,9a-diazabenzo[cd]azulen-4-yl)amino)propanamide], the Ki under setting [1] came out at 11.6 nM. On to `NC(=O)[C@@H](Nc1cc2c3c(c1)nc(-c1ccc4cncnc4c1)n3CCCO2)C1CC1` [Example 116, (S)-2-Cyclopropyl-2-((1-(quinazolin-7-yl)-8,9-dihydro-7H-6-oxa-2,9a-diazabenzo [cd]azulen-4-yl)amino) acetamide], for which, under setting [1], the Ki was 19 nM.
